Measurements as given in patent US20070173545A1, “Activation of hypoxia-inducible gene expression” (priority 2003, published 2007).
Entries after “also recorded” stand apart in the source; their conditions may differ. Like-named read-outs stand apart in the source and are kept apart here.

Columns and labels:
[1] = tested on: HIF-1a; assay: HIF-1a induction in digitonin-permeabilized human glioma cells (U87, U251); type: cell-based; settings: 1 mM ATP
[2] = tested on: HIF-1a protein; assay: HIF-1a levels in nuclear extracts of U87 glioma cells (western blot); type: cell-based, human; settings: for Effect on induction of HIF-1a by glucose (Krebs buffer): 50 μM IAA, 1 mM 4-CIN, NAD or NADH 3 mM each, catalase 1000 and 2000 units/ml; for HIF-1a accumulation, glucose replaced with metabolite: glucose-free Krebs, 3 mM concentrations
Procedure: (A) U87 glioma cells cultured in DMEM were switched to Krebs buffer containing 5.5 mM glucose (Glc) and then evaluated for nuclear HIF-1a levels at various times by western blot analysis. (B) HIF-1a levels were measured after four hours incubation of cells in Krebs buffer containing the indicated glucose concentrations or with 5.5 mM 2-deoxyglucose (2-DG) substituted for glucose. (C) HIF-1a levels were measured in U87 cells cultured in glucose-free Krebs buffer following treatment for four hours under normoxia (21% oxygen) hypoxia (1% oxygen) or with 150 μm desferrioxamine (DFO). (D) Induction of HIF-1a by glucose was monitored in the presence of 50 μM IAA or 1 mM 4-CIN. […] Results are representative of experiments repeated at least three times.
Similar measurements were made in the presence of 50 μM IAA or in glucose-free Krebs buffer. […] HIF-1a induction by four hours treatment with 5.5 mM glucose-containing Krebs (Glc) is shown for comparison. (E) Digitonin-permeabilized cells were treated with 1% oxygen or Krebs containing either 5.5 mM glucose or 2 mM pyruvate in the presence of 50 μM IAA. Permeabilized cell in lanes 5 and 6 were treated with 3 mM NAD or NADH respectively in glucose free Krebs. Nuclear HIF-1a levels were determined four hours later. (F) HIF-1a levels were determined after four hour treatment of cells in glucose-free Krebs (lane 1) or 5.5 mM Glucose containing Krebs. […] (H) To measure the decay of the HIF-1a protein, HIF-1a measurements were made after four hour treatment under hypoxia (lane 1), four hours hypoxia followed by 30 minutes normoxia (lane 2), four hour treatment with 150 μM DFO (lane 3), four hours DFO followed by addition of 100 μM CHX for one hour (lane 4), four hours treatment with 2 mM pyruvate (lane 5), and four hours pyruvate followed by addition of 100 μM CHX for one hour (lane 6). (H) HIF-1a levels were determined in digitonin-permeabilized cells treated for four hour with Krebs containing no glucose (lane 1), 1 mM pyruvate (lane 2), or 1 mM pyruvate and 10 mM 2-OG (lane 3).
In order to resolve the biochemical mechanisms underlying this phenomenon, we studied the human glioma cell line U-87 under conditions of carefully defined culture media. Thus we studied these cells while culturing them in freshly prepared Krebs buffer, all components of which were known to us.
To precisely define the glucose metabolite mediating HIF-1a accumulation, we utilized pharmacological inhibitors of glycolysis as well as the direct addition of different glucose metabolites to cells (FIG. 4).

[3] = tested on: HIF-1a; assay: HIF-1a induction in digitonin-permeabilized human glioma cells (U87, U251); type: cell-based; settings: 1 mM doses
Procedure: We determined the ability of each shown structure to induce HIF by exposing digitonin-permeabilized human glioma cells (U87, U251) to 1 mM doses.
At four hours, ATP levels were measured in cell extracts using the luciferase method.
(§1) In order to investigate the mechanism of action of the 2-oxoacid HIF inducers that we identified we first determined their effects upon cellular ATP levels. […] As shown in the scheme in FIG. 1, cellular levels of HIF-1a can be elevated by blockade of proteasomal activity, ubiquitinylation, or prolyl hydroxylation. Inhibition of the proteasome by lactacystin beta-lactone (Lbl) leads to accumulation of HIF-1a in its polyubiquitinylated form which generally appears as a smear of higher molecular weight species on western blots. […] Cellular accumulation and nuclear translocation of HIF-1a can also be studied via immunohistochemistry. For this purpose we utilized U251 cells which are more adherent to cell culture dishes that the U87 cells.

[4] = tested on: HIF-1a protein; assay: Nuclear HIF-1a accumulation in glioma cells by immunohistochemistry; type: cell-based, human; settings: 2 mM, four hours, glucose-free Krebs buffer, Lbl 20 μM
Text: Cells were then washed, fixed and stained for HIF-1a protein.
as §1

[5] = target: T1, HPH-1 (Homo sapiens, UniProt Q9H6Z9); settings: 20 mM competitor, ^35S-HPH-1, total binding
T1 sequence (Q9H6Z9 whole entry): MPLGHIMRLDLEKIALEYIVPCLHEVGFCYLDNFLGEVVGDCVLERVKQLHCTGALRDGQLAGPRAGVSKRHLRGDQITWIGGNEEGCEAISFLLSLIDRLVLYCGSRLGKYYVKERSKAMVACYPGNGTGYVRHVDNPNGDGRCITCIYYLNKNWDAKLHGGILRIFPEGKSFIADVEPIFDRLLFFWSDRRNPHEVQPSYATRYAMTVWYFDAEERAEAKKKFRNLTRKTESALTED
Procedure: Following four further washes radiolabel associated with the pellets was measured via scintillation counting.
We also prepared ^35S-labeled HPH homologues from expression plasmids using the rabbit reticulocyte culture system (Bruick et al. (2001) Science 294, 1337-1340). The 2-OG column allowed us to investigate the binding of ^35S-HPH as well as potential competitors of binding.

[6] = target: T1, HPH-1; assay: ^35S-pVHL capture assay, HPH-1; type: biochemical; design: made in house; host or cells: rabbit reticulocyte in vitro translation from expression plasmids; settings: assay optimization shown for HPH-1, dose curves
Procedure: After incubating the peptide with the HPHs and the indicated reagents, ^35S-pVHL was added followed by addition of streptavidin-coated beads to pull down the HIF-1a peptide. The reaction was pelleted, the pellet was washed and then solubilized for SDS-PAGE analysis followed by autoradiography to reveal the captured ^35S-pVHL. Using in vitro translated HPH homologues we first optimized assay conditions with respect to the required HPH substrates and co-factors. […] Conditions: ascorbate=2 mM, 2-OG=2 mM, DTT=1 mM. […] In all assays 5 μl (about 20 ng) of enzyme and 1 μg of peptide was utilized.
Ascorbate concentrations were varied as indicated and OAA or Pyr were added where indicated at 1 mM.
After incubating 1 μg amount of the peptide with in vitro translated HPH and the indicated reagents, ^35S-pVHL was added followed by the addition of Streptavidin-coated beads to pull down the HIF-1a peptide. The reaction was pelleted, and the pellet was washed and solubilized for SDS-PAGE analysis followed by autoradiography to reveal the captured ^35S-pVHL. Using each of the in vitro translated HPH homologues we first optimized assay conditions with respect to the required HPH substrates and co-factors.

[7] = tested on: HRE containing promoter; assay: HRE-luciferase reporter in U251 cells; type: cell-based, human
Text: FIG. 18: 2-oxoacids activate HIF-mediated gene expression in human cell lines Effective gene expression by HIF not only involves HIF protein stabilization via inhibition of HPH enzymes but also HIF-1 binding to DNA, inhibition of FIH-1 activity, and gene transcription (see FIG. 1). (A) Glioma cells used in our studies express FIH-1 as assessed using RT-PCR. […] Expression of beta-actin, a housekeeping gene not under HIF regulation is not affected by pyruvate. […] (E) U373 cell were transfected with a green fluorescent protein (GFP) construct under the control of an HIF regulatory element (HRE) containing promoter and then cultured for eight hours in glucose-free medium under the indicated conditions. […] U251 cells stably transfected with a luciferase construct under the control of an HRE containing promoter were cultured for six hours in glucose free Krebs with the following conditions: 1=control, 2=1% oxygen, 3=pyruvate (2 mM), 4=OAA (2 mM), 5=Ethylpyruvate (2 mM), 6=Glucose (5.5 mM), 7=DMOG (0.5 mM), 8=Lactacystin-beta lactone ([…]).
FIG. 19: HIF-mediated gene expression is selectively reversed by ascorbate U251 cells stably expressing HRE-luciferase were cultured in glucose-free Krebs buffer with the indicated conditions for eight hours. Pyruvate, oxaloacetate, and DMOG were added at 1 mM each.
Effective gene expression by HIF not only involves HIF protein stabilization via inhibition of HPH enzymes but also HIF-1 binding to DNA, inhibition of FIH-1 activity, and gene transcription. The human gliomas that we utilized for most of our studies all express mRNA for FIH-1 (FIG. 18A). […] To directly assess activation of gene containing an HRE regulated promoter by the glucose metabolites pyruvate and oxaloacetate, we used U373 glioma cells transfected with an HRE-green fluorescent (HRE-GFP) construct that responds to HIF activation.

[8] = tested on: HPH; assay: HPH activity of extracts of pretreated U251 cells (^35S-pVHL pulldown); type: cell-based, human; settings: four hours, 1 mM pyruvate or oxaloacetate, DMOG
Procedure: FIG. 17: Inactivation of cellular HPH activity by pyruvate and oxaloacetate U251 cells were cultured for four hours in glucose-free Krebs buffer with or without the indicated additions. Whole cell extracts were then prepared and used as a source of HPH enzyme to hydroxylate a biotinylated peptide from the HIF-1a ODD containing proline 564. Proline hydroxylation was measured by the ability of streptavidin coated beads to pulldown the hydroxyproline ^35S-pVHL complex as in FIGS. 12-14.
To directly determine whether HPH activity had been inactivated by pyruvate or oxaloacetate treatment, we evaluated the ability of U251 cell extracts from pyruvate or oxaloacetate treated cells to hydroxylate HIF-1a peptide using the ^35S-pVHL pulldown assay (Ivan et al. (2002) Proc. Natl. Acad. Sci. USA 99, 13459-13466). In these experiments, ascorbate was omitted from the in vitro portion of the assay.

[9] = tested on: HIF-1a; assay: HIF-1a decay after washout of the inducer in U251 and U87 cells; type: cell-based, human; settings: 1 mM pyruvate four hours, then glucose free Krebs in normoxia
Procedure: FIG. 16: Ascorbate reverses the prolonged HIF-1a accumulation (A) Comparison of HIF-1a decay in U251 following induction with either hypoxia or pyruvate. U251 cells were cultured in glucose-free Krebs under hypoxia or with 1 mM pyruvate in normoxia for four hours. Following this cells were switched to glucose free Krebs in normoxia and fixed in formaldehyde at the indicated times. Cells were then stained for HIF-1a immunoreactivity. Note the rapid decay of nuclear HIF-1a staining after having been induced by hypoxia versus pyruvate. (B) U87 cell treated for four hours under hypoxia show prominent HIF-1a induction which is completely degraded by thirty minutes of re-oxygenation. U87 cells were treated in glucose-free Krebs buffer with or without 1 mM pyruvate or oxaloacetate.
HPH-2 has been reported to constitute the major HPH activity of most cells. We therefore evaluated the ability of ascorbate to prevent HIF-1a accumulation by pyruvate and oxaloacetate in living cells. […] To test this possibility we compared the reversibility of HIF-1a accumulation following induction with either hypoxia, pyruvate, or oxaloacetate. The rationale for these experiments stems from the well-known reversible inhibition of HPH activity by hypoxia (see FIG. 1). Thus HIF-1a accumulation and HIF activation during hypoxia is rapidly reversed upon re-oxygenation. […]

## Nc1ncnc2c1ncn2[C@@H]1O[C@H](COP(=O)(O)OP(=O)(O)OP(=O)(O)O)[C@@H](O)[C@H]1O [ATP]
[1]
  HIF-1a levels after direct addition of ATP: did not raise basal HIF-1a levels; also recorded: had no effect on HIF-1a levels

## Catalase
[2]
  Effect on induction of HIF-1a by glucose (Krebs buffer): had no effect

## lactate
[2]; four hours
  HIF-1a accumulation, glucose replaced with metabolite: activate HIF-1a directly

## CC(C)C(=O)C(=O)O [alpha-ketoisovalerate]
[3]
  Ability to induce HIF (HIF-1a accumulation), structure-activity: capable of stimulating HIF-1a accumulation

## O=C(O)CC(O)C(=O)O (stereo not shown) [malate]
[3]
  Ability to induce HIF (HIF-1a accumulation), structure-activity: ineffective

## NC(=O)c1ccc[n+]([C@@H]2O[C@H](COP(=O)([O-])OP(=O)(O)OC[C@H]3O[C@@H](n4cnc5c(N)ncnc54)[C@H](O)[C@@H]3O)[C@@H](O)[C@H]2O)c1 [NAD]
[2]
  Effect on induction of HIF-1a by glucose (Krebs buffer): neither NAD or NADH (3 mM each) had any effect on this induction

## NC(=O)C1=CN([C@@H]2O[C@H](COP(=O)(O)OP(=O)(O)OC[C@H]3O[C@@H](n4cnc5c(N)ncnc54)[C@H](O)[C@@H]3O)[C@@H](O)[C@H]2O)C=CC1 [NADH]
[2]
  Effect on induction of HIF-1a by glucose (Krebs buffer): neither NAD or NADH (3 mM each) had any effect on this induction

## succinate
[4]
  Nuclear HIF-1a accumulation (immunostaining): ineffectiveness
[4]; listed as Succinate
  Nuclear HIF-1a accumulation (immunostaining): does not affect HIF-1a accumulation
[5]
  Displacement of HPH binding to the 2-oxoglutarate column: could not; also recorded: but not by 20 mM succinate
[2]; four hours
  HIF-1a accumulation, glucose replaced with metabolite: without effect

## O=S(=O)([O-])[O-].[Fe+2] [Iron, iron sulfate]
[6]
  Requirement of substrates and co-factors for HPH activity: absolutely required up to a maximal of about 100 μM

## CCOC(=O)C(C)=O [ethylpyruvate, Ethylpyruvate]
[7]; six hours, glucose free Krebs, pyruvate, OAA, Ethylpyruvate 2 mM, Lactacystin-beta lactone 20 mM
  HRE-luciferase expression: prominent activation of luciferase gene expression
[2]; four hours
  HIF-1a accumulation, glucose replaced with metabolite: as pronounced as those of the known 2-oxoglutarate antagonist dimethyloxalylglycine (DMOG)
[3]
  Ability to induce HIF (HIF-1a accumulation), structure-activity: identified as HIF-1 activators

## O=C(O)CCC(=O)C(=O)O [2-oxoglutarate]
[6]
  Requirement of substrates and co-factors for HPH activity: absolutely required for activity
[7]; eight hours, oxaloacetate 1 mM, 2-oxoglutarate 10 mM
  Reversal of HRE-luciferase activation by pyruvate or oxaloacetate: No reversal was seen
[5]
  Displacement of HPH binding to the 2-oxoglutarate column: Nearly half of the total binding of HPH to the 2-oxoglutarate column could be displaced
[5]; listed as 2-OG
  Displacement of HPH binding to the 2-oxoglutarate column: could displace this binding

## CC[C@H](C)C(=O)C(=O)O [alpha-keto-beta-methylvalerate]
[3]
  Ability to induce HIF (HIF-1a accumulation), structure-activity: capable of stimulating HIF-1a accumulation

## COC(=O)CNC(=O)C(=O)OC [DMOG, dimethyloxalylglycine]
[8]
  HPH activity of extracts of pretreated cells: No such pretreatment-induced inhibition; also recorded: no such loss of HPH activity
[3]
  Ability to induce HIF (HIF-1a accumulation), structure-activity: consistently enhanced HIF-1a levels

## CC(=O)C(=O)O [pyruvate]
[9]
  Persistence of HIF-1a accumulation after washing out: > 40 min

## CC(C)CC(=O)C(=O)O [alpha-ketoisocaproate]
[3]
  Ability to induce HIF (HIF-1a accumulation), structure-activity: capable of stimulating HIF-1a accumulation

## CCC(=O)C(=O)O [alpha-ketobutyrate]
[3]
  Ability to induce HIF (HIF-1a accumulation), structure-activity: ineffectiveness

## O=CC[C@@H](O)[C@H](O)[C@H](O)CO [2-deoxyglucose]
[2]; Krebs buffer with glucose or 5.5 mM 2-deoxyglucose, four hours, normoxia
  HIF-1a levels: could not be mimicked

## O=C(O)CC(O)(CC(=O)O)C(=O)O [citrate]
[2]; four hours
  HIF-1a accumulation, glucose replaced with metabolite: without effect

## NC(=O)CI [Iodoacetamide]
[2]
  Effect on induction of HIF-1a by glucose (Krebs buffer): completely blocked the ability of Krebs buffer to stimulate HIF-1a accumulation

## C[C@H](N)C(=O)O [alanine]
[2]; four hours
  HIF-1a accumulation, glucose replaced with metabolite: without effect

## O=C(O)C=Cc1ccc(O)cc1 [Cinnamate, 4-hydroxycinnamate]
[2]
  Effect on induction of HIF-1a by glucose (Krebs buffer): did not prevent the effect of Krebs buffer on HIF-1a accumulation

## O=C(O)CCCC(=O)C(=O)O [alpha-ketoadipate]
[3]
  Ability to induce HIF (HIF-1a accumulation), structure-activity: ineffectiveness
